Source: patent publication US9233905B2, “Oxidation and crystallization process for aromatic carboxylic acid production” (UOP LLC, priority 2012, dated 2016)

Assay: solubility study in acetic acid and ionic liquid solvent
Format: physicochemical
Conditions: ionic liquid solvent compared with acetic acid; FIG. 4
Description: Two samplers were used for different purposes. A custom Titanium sampler was fabricated by Parr Instrument with a 2 μm Titanium filter included to separate solid and liquid phase at operating temperature for studying reaction kinetics. A custom Titanium sampler, larger in size but with no filter attached, was used for a solubility study. For the solubility study, the solvent and solute were loaded in the reactor and heated to the desired temperature, and maintained for a certain time to ensure an equilibrium was established. Afterwards, sufficient time was allowed for the solid to settle before a sample was taken. Solubility was compared to another study that tested terephthalic acid solubility in acetic acid.

In the case of `O=Cc1ccc(C(=O)O)cc1` [4-CBA, 4-carboxybenzaldehyde], the solubility was “greater solubility in ionic liquid than in acetic acid”.
For `O=C(O)c1ccc(C(=O)O)cc1` [terephthalic acid, 1,4-benzenedicarboxylic acid], the solubility was “greater solubility in ionic liquid than in acetic acid”.
